The text below walks through data of patent US4272541A, “7,8 and 7-8 Substituted 4,5α-epoxymorphinan-6-one compounds, and methods of treating pain and drug dependence with them” (Miles Laboratories, Inc., priority 1979, dated 1981).

Like-named read-outs stand apart in the source and are kept apart here.

The conditions of series [1]: Telford et al. 1961; Yeh et al. 1976; cited from earlier work.
For series [2], the system named is writhing. Put plainly: Acetic acid mouse writhing test (analgesic effects). It is filed as in vivo, mice (male CD-1). As to conditions: for ED50: Mus musculus, sc, 0.25 h, mice, subcutaneous, acetic acid i.p. 15 minutes post drug, Table I, read-out: ED50. As for the experimental part:
(A) Analgesic effects upon mice (acetic acid writhing test).
TEST A. ACETIC ACID MOUSE WRITHING TEST
The analgesic effects of test compounds were determined in mice by use of the acetic acid writhing test described by B. J. R. Whittle, Brit. J. Pharmacol., 22:246 (1964). In this test at least three groups of five male CD-1 mice (18-22 g) each were given subcutaneous doses of the test drug dissolved in either distilled water or distilled water acidified with HCl depending on the solubility of the compound. In all cases, 0.4 milliliter of a 0.5% V/V acetic acid in distilled water solution was administered intraperitoneally 15 minutes post drug. The number of writhes in a 20 min. interval beginning 5 minutes after the acetic acid injection were determined and compared with the number of writhes in control groups which had received only acetic acid.
Percent inhibition of writhing was calculated as: [formula]
The ED50 dose, i.e., the dose required to reduce the number of writhes by 50%, was determined graphically from a plot of % inhibition as a probit versus log dose. Confidence limits of 95% were calculated on the basis of those results falling in the range 16-84% inhibition. See Litchfield, J. T. and Wilcoxon, F., J. Pharmacol. Exp. Ther., 96, 99-113, (1949).
A general note: In writhing tests, fewer writhes than in controls are read as antinociception.

Series [3] deals with morphine effect. Put plainly: Narcotic antagonist activity, modified rat tail flick test. It is filed as in vivo, rats (male albino Wistar). The following applies: Rattus norvegicus, ip, rats, read-out: AD50 (the source's name). As for the experimental part:
(B) Narcotic antagonist activity in rats (modified rat tail flick test).
TEST B. EVALUATION OF NARCOTIC ANTAGONIST ACTIVITY
The narcotic antagonist effects of test compounds were determined by a modification of the rat tail flick procedure of Harris and Pierson (J. Pharmacol. Exp. Ther. 143,141 [1964]).
Male albino Wistar rats (100-120 g) were used for this study. A rat's tail is so placed so as to cover a photocell. Heat is applied by a lamp in a reflector with a timer being connected to the lamp and photocell so that the timer goes on when the light is turned on and is turned off when the photocell is uncovered. A rheostat, incorporated into a heating lamp is used to adjust the intensity of the light falling on the tail of the rat such that the rat's control reaction time is from two to four seconds. Animals with a control reaction time outside this range are rejected. The rheostat adjustment is made only if a significant proportion (more than 2 out of every 10 rats) of the reaction times are outside the range of two to four seconds. Groups of five rats were used each time, and two control times were determined at 60 and 30 minutes prior to subcutaneous injection of the drug.
Thirty minutes after the last control run the test drug was given intraperitoneally. This was followed ten minutes later by an ED80 dose of morphine subcutaneously. The animals were retested at 20 minutes after the morphine injection. Control animals were given vehicle and morphine only. The data were calculated as follows: [formula]
The data were plotted on log-probit paper and AD50 values, i.e., the dose required to inhibit the morphine effect by 50% within 95% confidence limits, were determined by the method of Litchfield and Wilcoxon.
(In general: In hot-plate and tail-flick tests a longer latency is read as antinociception.)

Series [4] deals with Peristalsis. Put plainly: Charcoal meal test, agonist test (ability of test compound to directly inhibit peristalsis). Format: in vivo, mice (albino females, CFW strain). The following applies: for inhibition at 0.01 mg/kg / inhibition at 0.1 mg/kg / inhibition at 1 mg/kg / inhibition at 10 mg/kg / inhibition at 100 mg/kg: Mus musculus, sc, morphine 8 mg/kg = 100%, read-out: Percent Inhibition of Peristalsis; for inhibition at 0.01 mg/kg: 0.01 mg/kg s.c.; for inhibition at 0.1 mg/kg: 0.1 mg/kg s.c.; for inhibition at 1 mg/kg: 1.0 mg/kg s.c.; for inhibition at 10 mg/kg: 10.0 mg/kg s.c.; for inhibition at 100 mg/kg: 100.0 mg/kg s.c.; for inhibition of peristalsis / constipating side effect: in words, analysis of variance, comparison of compounds. As for the experimental part: (§1) The agonist and antagonist effects of TR-5088, reference compound TR-5128 and prior art compound 17-cyclopropylmethyl-4,5α-epoxy-3-hydroxymorphinan-6-one (TR-5118) were determined in mice by a modified procedure of Rodriguez and Villarreal (report on the 36th Annual Scientific Meeting Committee on the Problems of Drug Dependance, Mar. 10-14, 1974, Mexico City, D.F.).
(§2) Subjects and Procedure for Measuring Gastrointestinal Peristaltic Activity. The mice used were albino females of the CFW strain, weighing between 20 and 25 grams; ten animals per dose were used for each compound tested in each experiment except 20 animals were used in the tests of Compound 5088. Gastrointestinal peristaltic activity was measured using a modification of the charcoal meal method described by Macht and Baba-Gose (1931). Mice were deprived of food 18 hours before the administration of the charcoal meal. […] This meal consisted of an aqueous suspension of 5% powdered tragacanth and 5% animal charcoal and was freshly made for each experiment. The charcoal meal was administered by gastric intubation, 0.25 ml per mouse. The animals were sacrificed by cervical dislocation. After the sacrifice, the whole gastrointestinal tract was rapidly removed and freed of epiploon. Then the entire length of intestine was hung upon a small hook at the level of the pylorus. In order to standardize the tension of the intestine, a 5 g weight was hung at the level of the ileocecal valve. Gastrointestinal peristaltic activity was then determined by measuring the distance the charcoal traveled from the pylorus.
(§3) Drugs. Morphine hydrochloride, naloxone hydrochloride or test compounds were each dissolved in distilled water with their concentrations adjusted so that the volume of injection was 10 ml/kg. Doses are expressed in terms of the salts.
Morphine (8 mg/kg), test compound, or saline control was administered subcutaneously (s.c.), at time 0, the charcoal meal was administered by mouth (p.o.) at time 15 min, water (10 ml/kg) was administered s.c. at time 30 min, and the animals were sacrificed at time 45 min. The saline control value represents 0% inhibition and the morphine value represents 100% inhibition. All test compounds had values between saline and morphine, and results are expressed as % inhibition compared to morphine.
The data were subjected to analysis of variance. Also the Scheffe test, a statistical test that allows for multiple comparison, was performed.

For series [5], the system named is Anti-Peristaltic Effects Of Morphine. Put plainly: Charcoal meal test, antagonist test (ability to antagonize the anti-peristaltic effects of morphine). The following applies: for Percent Reversal (S.E.) Of Anti-Peristaltic Effects Of Morphine: morphine 8 mg/kg, naloxone 10 mg/kg = 100%; for antagonist properties: in words, charcoal meal tests. It is filed as in vivo, mice (albino females, CFW strain). The procedure:
as §1, §2, §3
Determination of Ability of Test Compounds to Antagonize the Anti-Peristaltic Effects of Morphine (Antagonist test).
Morphine (8 mg/kg) was given s.c. at time 0, charcoal meal was given p.o. at time 15 min, naloxone or test compound was given s.c. at 30 min, and the animals were sacrificed at time 45 min. Naloxone is the standard of reference and its maximum effect (at 10 mg/kg) to antagonize the antiperistaltic effects of morphine is assigned the value of 100%; test compounds are expressed as % of maximum naloxone antagonism.

The conditions of series [6]: Gates and Montzka 1964; cited from earlier work.
[7] abbreviates: test drug i.p. 10 minutes before ED80 dose of morphine s.c., Table I.

As for `C=CCN1CC[C@]23c4c5ccc(OC)c4O[C@H]2C(=O)CC[C@H]3[C@H]1C5` [7,8-dihydro-N-allylnorcodeinone, 17-allyl-4,5α-epoxy-3-methoxymorphinan-6-one], the analgesic properties entry in series [1] is given as “weak analgesic properties”.

In the case of `O=C1CC[C@H]2[C@H]3Cc4ccc(O)c5c4[C@@]2(CCN3CC2CC2)[C@H]1O5` [TR-5118, 17-cyclopropylmethyl-4,5α-epoxy-3-hydroxymorphinan-6-one], the ED50 in series [2] amounted to 1.34 mg/kg. In series [3] (setting [7]), the ED50 was 0.19 mg/kg. Moreover, in series [4], the inhibition – broadly, how much of the control response was suppressed – at 0.01 mg/kg was found to be 24.7%; the inhibition at 0.1 mg/kg is 25.4%; the inhibition at 1 mg/kg was 40.8%; the inhibition at 10 mg/kg came out at 44.8%. Besides, in series [4], the inhibition at 100 mg/kg was found to be 47.1% and the “inhibition of peristalsis / constipating side effect” value is listed as “inhibit peristalsis to a statistically significantly less degree than TR-5128”. Also, in series [5] (3.1 mg/kg s.c.), the “Percent Reversal (S.E.) Of Anti-Peristaltic Effects Of Morphine” value (“Percent Reversal” for short) is given as 56.6(±8.0) %. Besides, the “Percent Reversal” value in series [5] (31.0 mg/kg s.c.) was 69.3(±6.4) %. For the same molecule, in series [5], the antagonist properties result is “mixed agonist side effects and antagonist properties”. For the same molecule, the narcotic antagonist activity result in series [6] was “had narcotic antagonist activity”.

As to `C[C@H]1CC(=O)[C@@H]2Oc3c(O)ccc4c3[C@@]23CCN(CC2CCC2)[C@H](C4)[C@H]13.Cl` [TR-5088, 17-Cyclobutylmethyl-4,5α-epoxy-3-hydroxy-8β-methylmorphinan-6-one Hydrochloride], the figures for the ED50 in series [2] and in series [3] (setting [7]) were 0.67 mg/kg and 1.9 mg/kg, respectively. Further, the analgesic activity entry in series [2] (in words) was “especially effective analgesics”. Besides, the inhibition at 0.01 mg/kg in series [4] was 13.5%. Further, the inhibition at 0.1 mg/kg in series [4] amounted to 39.8%. The inhibition at 1 mg/kg in series [4] is 50.7%. The inhibition at 10 mg/kg in series [4] turned out to be 54%. Moreover, the inhibition at 100 mg/kg in series [4] came to 63.5%. Moreover, the “inhibition of peristalsis / constipating side effect” value in series [4] (Hydrochloride) is on record as “inhibit peristalsis to a statistically significantly less degree than TR-5128”; in series [4] (listed as 17-cyclobutylmethyl-4,5α-epoxy-3-hydroxy-8β-methylmorphinan-6-one, Hydrochloride), “less side effects”. The “Percent Reversal” value is on record as 12.4(±5.8) % in series [5] (0.031 mg/kg s.c.), 27.7(±7.3) % in series [5] (0.31 mg/kg s.c.), 54.6(±6.7) % in series [5] (3.1 mg/kg s.c.) and 44.7(±6.2) % in series [5] (31.0 mg/kg s.c.). Moreover, the antagonist properties entry in series [5] is “dramatically increased antagonist properties”.

With `O=C1CC[C@H]2[C@H]3Cc4ccc(O)c5c4[C@@]2(CCN3CC2CCC2)[C@H]1O5` [TR-5128, 17-Cyclobutylmethyl-4,5α-epoxy-3-hydroxymorphinan-6-one], the figures for the ED50 in series [2] and in series [3] (setting [7]) were 0.07 mg/kg and 1.7 mg/kg, respectively. The inhibition at 0.01 mg/kg in series [4] came to 17.5%. Further, the inhibition at 0.1 mg/kg in series [4] turned out to be 35.6%. Moreover, the inhibition at 1 mg/kg in series [4] was 50.7%. For the same molecule, the inhibition at 10 mg/kg in series [4] stood at 76.3%. Further, the inhibition at 100 mg/kg in series [4] is 84.2%. Also, the “Percent Reversal” value in series [5] (0.01 mg/kg s.c.) was 0.0%; in series [5] (0.10 mg/kg s.c.), 8.3(±4.6) %; in series [5] (1.0 mg/kg s.c.), 13.5(±7.3) %; in series [5] (10.0 mg/kg s.c.), 19.1(±5.8) %; in series [5] (31.0 mg/kg s.c.) it was 20.4(±5.3) %. Besides, the antagonist properties entry in series [5] is reported as “so low an antagonist ability as to be ineffective in the practical sense”.

`C=CCN1CC[C@]23c4c5ccc(O)c4O[C@H]2C(=O)CC[C@@]3(O)[C@H]1C5` [Naloxone]: the “Percent Reversal” value is reported as 14.5(±3.0) % in series [5] (0.01 mg/kg s.c.), 39.1(±4.2) % in series [5] (0.10 mg/kg s.c.), 69.8(±8.0) % in series [5] (1.0 mg/kg s.c.) and 100.0(±5.9) % in series [5] (10.0 mg/kg s.c.).

On to `COc1ccc2c3c1O[C@H]1C(=O)[C@@H](C)C[C@H]4[C@@H](C2)N(CC2CCC2)CC[C@]314.Cl` [TR-5403, 17-Cyclobutylmethyl-4,5α-epoxy-3-methoxy-7α-methylmorphinan-6-one Hydrochloride], for which the ED50 in series [2] was 9 mg/kg; in series [3] (vs morphine, *Estimated) it was 16.5 mg/kg.
